Data taken from US7687526B2, “Benzo-fused compounds for use in treating metabolic disorders” (Amgen Inc., priority 2006, dated 2010).

These molecules were tested against T1, human GPR40 (Homo sapiens, UniProt O14842) (assay: Cell-based aequorin assay using human GPR40). Details: CHO cells stably transfected with GPR40 and Aequorin; 0.01% HSA; aequorin luminescence; read-out: Relative EC50.
T1 construct: expressed in transfected cells; host or cells: CHO cells
Description: Cell-based aequorin assays were employed to characterize the modulatory activity of compounds on the GPR40 signaling pathway. In an exemplary assay, CHO cells were stably transfected with both GPR40 and Aequorin (Euroscreen). Cells were detached from the tissue culture dish with 2 mL of trypsin (0.25% (w/v)). Trypsinization was halted with 28 mL of Hanks Buffered Salt Solution containing 20 mM Hepes (H/HBSS) and 0.01% fatty acid-free human serum albumin (HSA). Coelantrazine is added to 1 ug/mL, and the cells were incubated for 2 hours at room temperature. Compounds were dissolved in DMSO for preparation of 10 mM stock solutions. Compounds were diluted in H/HBSS containing 0.01% HSA. Serial dilutions of the test compounds were prepared to determine dose response.
Aequorin luminescence measurements were made using an EG&G Berthold 96-well luminometer, and the response was measured over a 20 second interval after cells and compounds were mixed. The maximum relative light units was plotted to determine dose response. The EC50 (effective concentration to reach 50% maximal response) was determined from the dose response plot.
Table 1 presents representative data (EC50 values) obtained for exemplary compounds of the invention for the relative activation of human GPR40. […]

T1 sequence (O14842 whole entry): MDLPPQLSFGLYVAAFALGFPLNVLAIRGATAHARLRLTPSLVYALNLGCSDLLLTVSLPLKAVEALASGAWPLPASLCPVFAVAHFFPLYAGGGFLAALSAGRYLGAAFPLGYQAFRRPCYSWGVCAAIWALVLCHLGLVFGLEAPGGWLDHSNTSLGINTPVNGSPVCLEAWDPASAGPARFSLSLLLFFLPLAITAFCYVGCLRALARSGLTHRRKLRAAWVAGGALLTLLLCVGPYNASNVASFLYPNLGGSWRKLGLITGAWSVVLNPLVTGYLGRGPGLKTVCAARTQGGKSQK

Row | SMILES | EC50 [µM]
1 | Cn1ccnc1[C@@H](CC(=O)O)c1ccc(OCc2ccc3c(c2)C(=O)CCC3(C)C)cc1 [Example 81, (S)-3-(4-((5,5-Dimethyl-8-oxo-5,6,7,8-tetrahydronaphthalen-2-yl)methoxy)phenyl)-3-(1-methyl-1H-imidazol-2-yl)propanoic acid] | 1 to 10
2 | CC1(C)CCC(C)(C)c2cc(COc3ccc([C@H](/C=C/Cc4ccccc4)CC(=O)O)cc3)ccc21 [Example 84, (S,E)-6-Phenyl-3-(4-((5,5,8,8-tetramethyl-5,6,7,8-tetrahydronaphthalen-2-yl)methoxy)phenyl)hex-4-enoic acid] | 1 to 10
3 | CC1(C)CCC(C)(C)c2cc(COc3ccc([C@H](CC(=O)O)c4ncco4)cc3)ccc21 [Example 12, (S)-3-Oxazol-2-yl-3-[4-(5,5,8,8-tetramethyl-5,6,7,8-tetrahydro-naphthalen-2-ylmethoxy)-phenyl]-propionic acid] | 0.1 to 1
4 | CC#CC(CC(=O)O)c1ccc(OCc2ccc3c(c2)C[C@H](c2ccc(Cl)cc2)O3)cc1 (single isomer, unassigned) [Example 77] | 0.01 to 0.1
5 | CC1(C)CCC(C)(C)c2cc(COc3ccc([C@@H](/C=C/Cc4ccccc4)CC(=O)O)cc3)ccc21 [Example 83, (R,E)-6-Phenyl-3-(4-((5,5,8,8-tetramethyl-5,6,7,8-tetrahydronaphthalen-2-yl)methoxy)phenyl)hex-4-enoic acid] | 1 to 10
6 | Cn1ccnc1[C@@H](CC(=O)O)c1ccc(OCc2ccc3c(c2)OCCO3)cc1 [Example 86, (S)-3-(4-((2,3-Dihydrobenzo[b][1,4]dioxin-6-yl)methoxy)phenyl)-3-(1-methyl-1H-imidazol-2-yl)propanoic acid] | 1 to 10
7 | CC#C[C@@H](CC(=O)O)c1ccc(OCc2ccc3c(c2)C(C)(C)CCC3(C)C)cc1 [Example 19, (S)-3-(4-((5,5,8,8-Tetramethyl-5,6,7,8-tetrahydronaphthalen-2-yl)methoxy)phenyl)hex-4-ynoic acid] | 1 to 10
8 | CCC1(CC)CCC(C)(C)c2ccc(COc3ccc([C@H](CC(=O)O)c4ccon4)cc3)cc21 [Example 72, (S)-3-(4-((8,8-diethyl-5,5-dimethyl-5,6,7,8-tetrahydronaphthalen-2-yl)methoxy)phenyl)-3-(isoxazol-3-yl)propanoic acid] | 0.01 to 0.1
9 | CCC1(CC)CCC(C)(C)c2ccc(COc3ccc([C@H](CC(=O)O)c4nnnn4C)cc3)cc21 [Example 73, (S)-3-(4-((8,8-diethyl-5,5-dimethyl-5,6,7,8-tetrahydronaphthalen-2-yl)methoxy)phenyl)-3-(1-methyl-1H-tetrazol-5-yl)propanoic acid] | 0.01 to 1
10 | Cn1ccnc1[C@@H](CC(=O)O)c1ccc(OCc2ccc3c(c2)OC(F)(F)O3)cc1 [Example 82, (S)-3-(4-((2,2-difluorobenzo[d][1,3]dioxol-5-yl)methoxy)phenyl)-3-(1-methyl-1H-imidazol-2-yl)propanoic acid] | 0.1 to 1
11 | CC#C[C@H](CC(=O)O)c1ccc(OCc2ccc3c(c2)C(C)(C)CCC3(C)C)cc1 [Example 20, (R)-3-(4-((5,5,8,8-Tetramethyl-5,6,7,8-tetrahydronaphthalen-2-yl)methoxy)phenyl)hex-4-ynoic acid] | 1 to 10
12 | CC1(C)CCC(C)(C)c2cc(COc3ccc([C@H](CC(=O)O)C4=NOCC4)cc3)ccc21 [Example 74, 3-(4,5-Dihydroisoxazol-3-yl)-3-(4-((5,5,8,8-tetramethyl-5,6,7,8-tetrahydronaphthalen-2-yl)methoxy)phenyl)propanoic acid] | 0.01 to 0.1
13 | Cn1ccnc1[C@@H](CC(=O)O)c1ccc(OCc2ccc3c(c2)C(C)(C)CC3(C)C)cc1 [Example 80, (S)-3-(1-Methyl-1H-imidazol-2-yl)-3-(4-((1,1,3,3-tetramethyl-2,3-dihydro-1H-inden-5-yl)methoxy)phenyl)propanoic acid] | 0.1 to 1
14 | CC/C(C)=C/[C@H](CC(=O)O)c1ccc(OCc2ccc3c(c2)C(C)(C)CCC3(C)C)cc1 [Example 79, (S,E)-5-Methyl-3-(4-((5,5,8,8-tetramethyl-5,6,7,8-tetrahydronaphthalen-2-yl)methoxy)phenyl)hept-4-enoic acid] | 1 to 10
15 | CC#CC(CC(=O)O)c1ccc(OCc2ccc3c(c2)C[C@@H](c2ccc(Cl)cc2)O3)cc1 (single isomer, unassigned) [Example 76] | 0.01 to 0.1
16 | Cn1ccnc1[C@@H](CC(=O)O)c1ccc(OCc2ccc3c(c2)CCCC3(C)C)cc1 [Example 75, (S)-3-(4-((5,5-dimethyl-5,6,7,8-tetrahydronaphthalen-2-yl)methoxy)phenyl)-3-(1-methyl-1H-imidazol-2-yl)propanoic acid] | 0.1 to 1
17 | CC/C(C)=C/[C@@H](CC(=O)O)c1ccc(OCc2ccc3c(c2)C(C)(C)CCC3(C)C)cc1 [Example 78, (R,E)-5-Methyl-3-(4-((5,5,8,8-tetramethyl-5,6,7,8-tetrahydronaphthalen-2-yl)methoxy)phenyl)hept-4-enoic acid] | 0.1 to 1

These molecules were tested on Human islets (assay: Insulin secretion assay). Details: human islet cells, KRBH with 11.2 mM glucose, insulin measured by SPA; read-out: EC50 of stimulated insulin secretion from islet cells.
Format: cell-based
Description: Human islets were isolated from cadaveric donors. Islets were treated with trypsin (0.25% (w/v) and cells were seeded in 96-well plates containing 3,000 cells per well. Cells were cultured in Roswell Park Memorial Institute (RMPI) media containing 10% fetal bovine serum.
For determination of insulin secretion, media was removed from islet cells and replaced with Krebs-Ringer bicarbonate buffer containing 10 mM HEPES (KRBH) and 2 mM glucose. After one hour incubation, media was replaced with KRBH containing 11.2 mM glucose and test compounds. Insulin released into the medium from the islet cells was measured using scintillation proximity assay (SPA).

Row | SMILES | EC50 [µM]
18 | CC1(C)CCC(C)(C)c2cc(COc3ccc(C(CC(=O)O)c4cncnc4)cc3)ccc21 (racemic) [Example 9, (R/S)-3-Pyrimidin-5-yl-3-[4-(5,5,8,8-tetramethyl-5,6,7,8-tetrahydro-naphthalen-2-ylmethoxy)-phenyl]-propionic acid] | < 1
19 | Cn1cncc1[C@@H](CC(=O)O)c1ccc(OCc2ccc3c(c2)C(C)(C)CCC3(C)C)cc1 [Example 4, (S)-3-(1-methyl-1H-imidazol-5-yl)-3-(4-((5,5,8,8-tetramethyl-5,6,7,8-tetrahydronaphthalen-2-yl)methoxy)phenyl)propanoic acid] | < 1
